Experiments:
Assay in all cases: relative viability (nuclei count vs DMSO), 5 days (fraction); higher = more cells survive
KIN001-266 + Olaparib = compound: CCN1CCC(CC1)N2C=C(N=N2)CNC3=CC4=C(C(=CN=C4C(=C3)Cl)C#N)NC5=CC(=C(C=C5)F)Cl [KIN001-266] + O=C(c1cc(Cc2n[nH]c(=O)c3ccccc23)ccc1F)N1CCN(C(=O)C2CC2)CC1 [Olaparib] (partner 8 µM)
In short: (§1)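 Each reported value is a median over duplicate plates. It expresses relative viability: treated-well nuclei count divided by vehicle-well nuclei count. Lung cancer cell lines in 1536-well plates were dosed by pin tool a day after seeding, alone with one drug or with a fixed anchor-drug dose plus five library-drug doses (not always all listed) in √10 steps, and nuclei were counted after 5 days.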

KIN001-266 + Palbociclib = compound: CCN1CCC(CC1)N2C=C(N=N2)CNC3=CC4=C(C(=CN=C4C(=C3)Cl)C#N)NC5=CC(=C(C=C5)F)Cl [KIN001-266] + CC(=O)c1c(C)c2cnc(Nc3ccc(N4CCNCC4)cn3)nc2n(C2CCCC2)c1=O [Palbociclib] (partner 0.5 µM)
In short: as §1

KIN001-266 + Alpelisib = compound: CCN1CCC(CC1)N2C=C(N=N2)CNC3=CC4=C(C(=CN=C4C(=C3)Cl)C#N)NC5=CC(=C(C=C5)F)Cl [KIN001-266] + Cc1nc(NC(=O)N2CCC[C@H]2C(N)=O)sc1-c1ccnc(C(C)(C)C(F)(F)F)c1 [Alpelisib] (partner 2 µM)
In short: as §1

KIN001-266 + Pemetrexed = compound: CCN1CCC(CC1)N2C=C(N=N2)CNC3=CC4=C(C(=CN=C4C(=C3)Cl)C#N)NC5=CC(=C(C=C5)F)Cl [KIN001-266] + Nc1nc2[nH]cc(CCc3ccc(C(=O)N[C@@H](CCC(=O)O)C(=O)O)cc3)c2c(=O)[nH]1 [Pemetrexed] (partner 0.2 µM)
In short: as §1

Cell Line | relative viability (KIN001-266 + Olaparib; first compound 0.08 µM) | relative viability (KIN001-266 + Olaparib; first compound 0.253 µM) | relative viability (KIN001-266 + Olaparib; first compound 0.8 µM) | relative viability (KIN001-266 + Olaparib; first compound 2.53 µM) | relative viability (KIN001-266 + Olaparib; first compound 8 µM) | relative viability (KIN001-266 + Palbociclib; first compound 0.08 µM) | relative viability (KIN001-266 + Palbociclib; first compound 0.253 µM) | relative viability (KIN001-266 + Palbociclib; first compound 0.8 µM) | relative viability (KIN001-266 + Palbociclib; first compound 2.53 µM) | relative viability (KIN001-266 + Palbociclib; first compound 8 µM) | relative viability (KIN001-266 + Alpelisib; first compound 0.08 µM) | relative viability (KIN001-266 + Alpelisib; first compound 0.253 µM) | relative viability (KIN001-266 + Alpelisib; first compound 0.8 µM) | relative viability (KIN001-266 + Alpelisib; first compound 2.53 µM) | relative viability (KIN001-266 + Alpelisib; first compound 8 µM) | relative viability (KIN001-266 + Pemetrexed; first compound 0.08 µM) | relative viability (KIN001-266 + Pemetrexed; first compound 0.253 µM) | relative viability (KIN001-266 + Pemetrexed; first compound 0.8 µM) | relative viability (KIN001-266 + Pemetrexed; first compound 2.53 µM) | relative viability (KIN001-266 + Pemetrexed; first compound 8 µM)
NCI-H661 | 0.741 | 0.732 | 0.707 | 0.617 | 0.459 | 0.424 | 0.413 | 0.403 | 0.372 | 0.349 | 0.95 | 0.753 | 0.721 | 0.557 | 0.591 | 0.913 | 0.946 | 0.932 | 0.856 | 0.741
NCI-H838 | 0.775 | 0.811 | 0.764 | 0.68 | 0.471 | 0.228 | 0.207 | 0.212 | 0.164 | 0.22 | 1.04 | 0.998 | 1.05 | 0.966 | 0.694 | 0.242 | 0.249 | 0.26 | 0.249 | 0.236
NCI-H1355 | 0.765 | 0.769 | 0.699 | 0.716 | 0.731 | 0.41 | 0.381 | 0.438 | 0.415 | 0.387 | 0.854 | 0.783 | 0.912 | 0.737 | 0.764 | 0.987 | 0.995 | 1.1 | 1 | 1.01
NCI-H1395 | 0.478 | 0.441 | 0.447 | 0.429 | 0.427 | 0.671 | 0.614 | 0.648 | 0.602 | 0.616 | 1.07 | 1.06 | 1.23 | 0.955 | 1.05 | 0.871 | 1.02 | 0.964 | 0.784 | 0.847
NCI-H1437 | 0.644 | 0.649 | 0.666 | 0.582 | 0.377 | 0.34 | 0.33 | 0.296 | 0.325 | 0.278 | 0.997 | 1.06 | 0.961 | 0.858 | 0.495 | 0.32 | 0.329 | 0.329 | 0.3 | 0.241
NCI-H1651 | 0.185 | 0.165 | 0.175 | 0.15 | 0.167 | 0.528 | 0.518 | 0.525 | 0.533 | 0.531 | 1.05 | 0.949 | 1.01 | 0.99 | 0.865 | 0.6 | 0.535 | 0.531 | 0.514 | 0.58
NCI-H1666 | 0.77 | 0.754 | 0.607 | 0.739 | 0.73 | 0.61 | 0.668 | 0.601 | 0.664 | 0.655 | 0.985 | 0.999 | 0.901 | 0.887 | 0.696 | 0.861 | 0.857 | 0.881 | 0.773 | 0.856
NCI-H1734 | 0.719 | 0.6 | 0.505 | 0.551 | 0.425 | 0.342 | 0.539 | 0.345 | 0.321 | 0.294 | 0.686 | 0.686 | 0.546 | 0.716 | 0.704 | 0.425 | 0.426 | 0.435 | 0.388 | 0.417
NCI-H1755 | 0.933 | 0.865 | 0.896 | 0.864 | 0.815 | 0.43 | 0.447 | 0.432 | 0.443 | 0.413 | 1 | 0.895 | 0.95 | 0.843 | 0.816 | 0.394 | 0.459 | 0.334 | 0.407 | 0.433
NCI-H1792 | 0.384 | 0.418 | 0.485 | 0.369 | 0.399 | 0.675 | 0.719 | 0.637 | 0.681 | 0.638 | 0.715 | 0.752 | 0.695 | 0.8 | 0.669 | 0.882 | 0.9 | 0.81 | 0.757 | 0.857
NCI-H1793 | 0.864 | 0.823 |  | 0.923 | 0.711 | 0.316 | 0.358 |  | 0.354 | 0.307 | 0.829 | 0.624 | 0.822 | 0.897 | 0.572 | 0.895 | 0.925 |  | 0.771 | 0.621
NCI-H1915 | 0.253 | 0.25 | 0.241 | 0.234 | 0.211 | 0.546 | 0.599 | 0.514 | 0.543 | 0.389 | 1.05 | 1.06 | 1.01 | 1.04 | 0.97 | 0.507 | 0.466 | 0.504 | 0.469 | 0.575
NCI-H1944 | 0.411 | 0.403 | 0.346 | 0.411 | 0.326 | 0.338 | 0.355 | 0.319 | 0.361 | 0.351 | 0.865 | 0.813 | 0.797 | 0.801 | 0.852 | 0.616 | 0.572 | 0.596 | 0.664 | 0.57
NCI-H1975 | 0.823 | 0.81 | 0.791 | 0.734 | 0.69 | 0.709 | 0.553 | 0.551 | 0.609 | 0.505 | 0.696 | 0.75 | 0.667 | 0.665 | 0.597 | 0.314 | 0.305 | 0.297 | 0.285 | 0.29
NCI-H1993 | 1.04 | 0.937 | 1.16 | 0.887 | 0.73 | 0.68 | 0.653 | 0.66 | 0.688 | 0.58 | 0.664 | 0.682 | 0.692 | 0.642 | 0.634 | 0.562 | 0.554 | 0.637 | 0.586 | 0.596
NCI-H2009 | 0.721 | 0.667 | 0.657 | 0.65 | 0.321 | 0.203 | 0.257 | 0.253 | 0.208 | 0.203 | 1.21 | 1.17 | 1.19 | 1.03 | 0.983 | 1.03 | 1.04 | 1.01 | 0.996 | 0.903

Source: the supplement of paper PMC10307832
